Data set [1] concerns Glomerella lagenarium (Colletotrichum lagenarium). Briefly: Glomerella lagenarium (Colletotrichum lagenarium) liquid culture / cucumber / preventative (anthracnose). Type of data set: cell-based. The note with it: Colletotrichum orbiculare; 20 ppm in the applied formulation; liquid culture in PDB, 24° C., 3 to 4 days after application; read-out: disease control (inhibition of growth, photometric). On the procedure:
Mycelia fragments or conidia suspensions of a fungus prepared either freshly from liquid cultures of the fungus or from cryogenic storage, are directly mixed into nutrient broth. DMSO solutions of the test compound (max. 10 mg/ml) are diluted with 0.025% Tween20 by a factor of 50 and 10 μl of this solution is pipetted into a microtiter plate (96-well format). The nutrient broth containing the fungal spores/mycelia fragments is then added to give an end concentration of the tested compound. The test plates are incubated in the dark at 24° C. and 96% relative humidity. The inhibition of fungal growth is determined photometrically after 2 to 7 days, depending on the pathosystem, and percent antifungal activity relative to the untreated check is calculated.
Conidia of the fungus from cryogenic storage are directly mixed into nutrient broth (PDB—potato dextrose broth). After placing a (DMSO) solution of test compound into a microtiter plate (96-well format), the nutrient broth containing the fungal spores is added. The test plates are incubated at 24° C. and the inhibition of growth is measured photometrically 3 to 4 days after application.
The following compounds at 20 ppm in the applied formulation give at least 80% disease control in this test when compared to untreated control under the same conditions, which show extensive disease development.

For data set [2], the system named is Puccinia recondita f. Sp. Tritici. The experiment in a line: Puccinia recondita f. sp. tritici / wheat / leaf disc preventative (brown rust). Type of data set: in vivo. The note with it: foliar, 200 ppm in the applied formulation, wheat leaf segments cv. Kanzler, inoculated 1 day after application, assessed 7 to 9 days after application, read-out: disease control. The procedure:
Leaf disks or leaf segments of various plant species are cut from plants grown in a greenhouse. The cut leaf disks or segments are placed in multiwell plates (24-well format) onto water agar. The leaf disks are sprayed with a test solution before (preventative) or after (curative) inoculation. Compounds to be tested are prepared as DMSO solutions (max. 10 mg/ml) which are diluted to the appropriate concentration with 0.025% Tween20 just before spraying. The inoculated leaf disks or segments are incubated under defined conditions (temperature, relative humidity, light, etc.) according to the respective test system. A single evaluation of disease level is carried out 3 to 14 days after inoculation, depending on the pathosystem. Percent disease control relative to the untreated check leaf disks or segments is then calculated. Wheat leaf segments cv. Kanzler were placed on agar in multiwell plates (24-well format) and sprayed with the formulated test compound diluted in water. The leaf disks were inoculated with a spore suspension of the fungus 1 day after application. The inoculated leaf segments were incubated at 19° C. and 75% relative humidity (rh) under a light regime of 12 hours light/12 hours darkness in a climate cabinet and the activity of a compound was assessed as percent disease control compared to untreated when an appropriate level of disease damage appears in untreated check leaf segments (7 to 9 days after application). The following compounds at 200 ppm in the applied formulation give at least 80% disease control in this test when compared to untreated control leaf disks under the same conditions, which show extensive disease development.

Here are results for 8 molecules from patent US20210269426A1, “MICROBIOCIDAL OXADIAZOLE DERIVATIVES” (SYNGENTA CROP PROTECTION AG, priority 2018, published 2021).

Bounds are passed on as bounds.

As a reminder, the melting point is the temperature, or range, at which the solid turns liquid. Broadly, the inhibition is the percentage by which the read-out fell short of the control. As for `CONC(=O)C(=O)c1ccc(-c2noc(C(F)(F)F)n2)s1` [Compound 1.5, N-methoxy-2-oxo-2-[5-[5-(trifluoromethyl)-1,2,4-oxadiazol-3-yl]-2-thienyl]acetamide], the melting point lay within 109.7 to 112.1 °C. Moreover, the inhibition at 20 ppm in data set [1] is at least 80%. In addition, the pest or weed control at 200 ppm in data set [2] is at least 80%.
Molecule `CNC(=O)C(=O)c1ccc(-c2noc(C(F)(F)F)n2)s1` [Compound 1.7, N-methyl-2-oxo-2-[5-[5-(trifluoromethyl)-1,2,4-oxadiazol-3-yl]-2-thienyl]acetamide] yielded a melting point of 96.2 to 98.7 °C. Also, the inhibition at 20 ppm in data set [1] is at least 80%. Further, the pest or weed control at 200 ppm in data set [2] was at least 80%.
Regarding `O=C(NC1CC1)C(=O)c1ccc(-c2noc(C(F)(F)F)n2)s1` [Compound 1.8, N-cyclopropyl-2-oxo-2-[5-[5-(trifluoromethyl)-1,2,4-oxadiazol-3-yl]-2-thienyl]acetamide], the melting point was 122.1 to 126.7 °C. Also, the inhibition at 20 ppm in data set [1] was at least 80%. Besides, the pest or weed control at 200 ppm in data set [2] is at least 80%.
In turn, `CCNC(=O)C(=O)c1ccc(-c2noc(C(F)(F)F)n2)s1` [Compound 1.6, N-ethyl-2-oxo-2-[5-[5-(trifluoromethyl)-1,2,4-oxadiazol-3-yl]-2-thienyl]acetamide] returned a melting point of 142.7 to 144.6 °C. Also, in data set [1], the inhibition at 20 ppm is at least 80%. For the same molecule, in data set [2], the pest or weed control at 200 ppm is at least 80%.
Take `CON(C)C(=O)C(=O)c1ccc(-c2noc(C(F)(F)F)n2)s1` [Compound 1.4, N-methoxy-N-methyl-2-oxo-2-[5-[5-(trifluoromethyl)-1,2,4-oxadiazol-3-yl]-2-thienyl]acetamide]: the inhibition at 20 ppm in data set [1] was at least 80%. The pest or weed control at 200 ppm in data set [2] is at least 80%.
`COCCNC(=O)C(=O)c1ccc(-c2noc(C(F)(F)F)n2)s1` [Compound 1.2, N-(2-methoxyethyl)-2-oxo-2-[5-[5-(trifluoromethyl)-1,2,4-oxadiazol-3-yl]-2-thienyl]acetamide]: the melting point lay within 106 to 107.1 °C. Moreover, the inhibition at 20 ppm in data set [1] is at least 80%. Also, the pest or weed control at 200 ppm in data set [2] was at least 80%.
`O=C(NCc1ccccc1Cl)C(=O)c1ccc(-c2noc(C(F)(F)F)n2)s1` [Compound 1.1, N-[(2-chlorophenyl)methyl]-2-oxo-2-[5-[5-(trifluoromethyl)-1,2,4-oxadiazol-3-yl]-2-thienyl]acetamide] came in with a melting point of 94 to 95.2 °C. Moreover, the inhibition at 20 ppm in data set [1] was at least 80%. Moreover, the pest or weed control at 200 ppm in data set [2] is at least 80%.
On to `CN(C)C(=O)C(=O)c1ccc(-c2noc(C(F)(F)F)n2)s1` [Compound 1.3, N,N-dimethyl-2-oxo-2-[5-[5-(trifluoromethyl)-1,2,4-oxadiazol-3-yl]-2-thienyl]acetamide], for which the melting point is 88.4 to 89.4 °C. Further, in data set [1], the inhibition at 20 ppm was at least 80%. Also, the pest or weed control at 200 ppm in data set [2] was at least 80%.
